System: Balb/c mice
Assay: OVA antigen-exposed bronchial hypersensitivity mouse model, respiratory constriction caused by acetylcholine
Assay type: in vivo
Details: 5 mg/kg orally
Description: 50 μg OVA and 1 mg aluminum hydroxide (an adjuvant) were injected into the peritoneal cavity of Balb/c mice (male, seven-week old), and after 10 days the mice was sensitized with OVA under the same conditions. Then, after 10 days, 1% OVA was given by inhalation using the Ultra-nebulizer model UN701 (Azwell (Co., Ltd.)) for 30 minutes every four days three times in total. Enhanced bronchial hypersensitivity was monitored by detecting the respiratory constriction caused by acetylcholine (6.25-2000 μg/kg) using an artificial respirator (model 131, New England Medical Instruments Inc.) 24 hours after the final antigen inhalation (Nagai H. et al, Int Arch Allergy Immunol; 108: 189-195, 1995). Bronchial hypersensitivity can be induced by this treatment.

For C[C@]12C=CC(=O)C=C1CC[C@@H]1[C@@H]2[C@@H](O)C[C@@]2(C)[C@H]1CC[C@]2(O)C(=O)CO [Prednisolone], the “development of bronchial hypersensitivity” value was “suppressed”.
